# Data from patent US20050009770A1, “Use of excipients to increase DNA uptake by swine muscle cells” (priority 2002, published 2005).
# Tested on: swine muscle cells
# Test: Excipient testing in pigs: X-gal staining of muscle after IM injection of β galactosidase plasmid DNA with excipient
# Type: in vivo
# Details: excipient combined with plasmid DNA containing a β galactosidase gene; conclusion
# Procedure: Solutions of sucrose (3-7%), DMSO (18-22%), Tween 80 (0.03-0.07%), or E. coli recombinant modified labile toxin (rmLT) (23-27 ug/dose) can be formulated at the desired final concentration in 150 mM sodium phosphate, pH 7.2, containing 1 mg/ml of the plasmid DNA of interest. Solutions can be assembled by dissolving the excipients and plasmid DNA in 150 mM sodium phosphate, pH 7.2 at the desired concentration. Alternatively, the preparations can be prepared as sub-solution, at twice their final concentration in 150 mM sodium phosphate, pH 7.2, and then mixed in equal volumes immediately prior to administration. The SEPA-DNA solution is prepared by adding 1 part of the respective DNA solution, at 5 mg/ml, to 4 parts SEPA.
# Table 1 contains the scoring results of X-gal staining in swine muscles 5 days following injection of the various DNA and excipients solutions.
# Each pig received a total of 6 injections. All injections administered in the longissimus dorsi muscle (3/side). Injections were approximately 2.5″ lateral to the spine. On each side of the pig, one site was located at approximately the last rib, and the two others were at approximately 6″ and 12″ cranial (towards the nose) from the last rib. Hair was clipped in an area approximately 1″ square to aid identification of injection sites. Injections were made in the center of each shaved area, at approximately 90′ angle to the skin surface. The pigs were restrained briefly in a self-locking head catch chute and the test article administered IM using a 1.5″ long 18 gauge needle attached to a 3 ml syringe. Each test article (treatment) was administered in a total of 3 injection sites (each on a different pig). The total volume of each injection was 1 ml.
# Pigs were euthanized 5 days following administration of the respective DNA and excipient solution. A section of tissue approximately 1″ cubed, surrounding the point of entry of the needle, was excised. […] The amount of staining was determined by visual observation using a subjective scale from “No Staining” through a gradation to “Yes++++”. […]
row,Compound,"DNA uptake by swine muscle cells, as indicated by tissue staining"
1,"OC[C@H]1O[C@@](CO)(O[C@H]2O[C@H](CO)[C@@H](O)[C@H](O)[C@H]2O)[C@@H](O)[C@@H]1O [5% Sucrose, sucrose]",enhanced DNA uptake
2,"C[S+](C)[O-] [20% Dimethyl sulfoxide, dimethyl sulfoxide]",enhanced DNA uptake
3,"CCCCCCCCCC1OCCO1 [SEPA solution, 2-n-Nonyl-1,3-dioxolane]",enhanced DNA uptake
